Assay results as given in ChEMBL document CHEMBL3714732, “Small molecule modulators of g protein-coupled receptor six” (2001).
Blank lines part the entries; values can stand above or below the molecule they belong to. The source made the active and inactive calls. The calls are words filed in the database; no cut-off is given here.

Legend:
[1] = molecular target: T1, G-protein coupled receptor 6 (Homo sapiens, UniProt P46095); experiment: Inverse agonist activity at rat G-protein GSalpha fused GPR6 (unknown origin) expressed in HEK293 cell membranes assessed as effect on [35S]GTPgammaS binding pre-incubated for 5 to 10 mins followed by 60 mins incubation in presence of [35S]GTPgammaS by scintillation proximity assay; assay type: functional
[2] = molecular target: T1, G-protein coupled receptor 6; experiment: Inverse agonist activity at rat G-protein GSalpha fused GPR6 (unknown origin) expressed in HEK293 cell membranes assessed as cAMP accumulation pre-incubated for 30 mins by microbeta plate reader based assay; assay type: functional
Rattus norvegicus [3] = experiment: Reduction in food intake in 24 hrs food-deprived Sprague-Dawley rat assessed as food intake level at 100 umol/kg, po followed by standard chow pellets feeding and measured 8 hrs post dose (reference value: 14 to 14.5g); assay type: functional
Rattus norvegicus [4] = experiment: Reduction in water intake in 24 hrs food-deprived Sprague-Dawley rat assessed as water intake level at 100 umol/kg, po followed by standard chow pellets feeding and measured 6 hrs post dose (reference value: 19.25 to 22.9g); assay type: functional
Rattus norvegicus [5] = experiment: Reduction in food intake in 24 hrs food-deprived Sprague-Dawley rat assessed as food intake level per 2 hrs at 100 umol/kg, po followed by standard chow pellets feeding and measured 8 hrs post dose (reference value: 2 to 2.5g/2 hrs); assay type: functional
Rattus norvegicus [6] = experiment: Reduction in body weight gain in 24 hrs food-deprived Sprague-Dawley rat assessed as body weight at 100 umol/kg, po followed by standard chow pellets feeding and measured 8 hrs post dose (reference value: 19.5g); assay type: functional
Rattus norvegicus [7] = experiment: Reduction in water intake in 24 hrs food-deprived Sprague-Dawley rat assessed as water intake level at 100 umol/kg, po followed by standard chow pellets feeding and measured 8 hrs post dose (reference value: 19g); assay type: functional
Rattus norvegicus [8] = experiment: Reduction in body weight gain in 24 hrs food-deprived Sprague-Dawley rat assessed as body weight gain level at 100 umol/kg, po followed by standard chow pellets feeding and measured 6 hrs post dose (reference value: 19.25 to 20.3g); assay type: functional
Rattus norvegicus [9] = experiment: Reduction in food intake in 24 hrs food-deprived Sprague-Dawley rat assessed as food intake level at 54 mg/kg, ip followed by standard chow pellets feeding and measured 1.5 hrs post dose (reference value: 6g); assay type: functional
Rattus norvegicus [10] = experiment: Reduction in food intake in 24 hrs food-deprived Sprague-Dawley rat assessed as food intake level at 54 mg/kg, ip followed by standard chow pellets feeding and measured 6.5 hrs post dose (reference value: =<14g); assay type: functional
Rattus norvegicus [11] = experiment: Reduction in water intake in 24 hrs food-deprived Sprague-Dawley rat assessed as at 27 mg/kg, ip followed by standard chow pellets feeding and measured 6.5 hrs post dose relative to control; assay type: functional
Rattus norvegicus [12] = experiment: Reduction in water intake in 24 hrs food-deprived Sprague-Dawley rat at 54 mg/kg, ip followed by standard chow pellets feeding and measured 6.5 hrs post dose relative to control; assay type: functional
Rattus norvegicus [13] = experiment: Reduction in body weight gain in 24 hrs food-deprived Sprague-Dawley rat assessed as body weight level at 13.5 mg/kg, ip followed by standard chow pellets feeding and measured 6.5 hrs post dose (reference value: 20g); assay type: functional
Rattus norvegicus [14] = experiment: Reduction in body weight gain in 24 hrs food-deprived Sprague-Dawley rat assessed as body weight level at 27 mg/kg, ip followed by standard chow pellets feeding and measured 6.5 hrs post dose; assay type: functional, organism-based
Rattus norvegicus [15] = experiment: Reduction in body weight gain in 24 hrs food-deprived Sprague-Dawley rat assessed as body weight level at 54 mg/kg, ip followed by standard chow pellets feeding and measured 6.5 hrs post dose; assay type: functional, organism-based
Rattus norvegicus [16] = experiment: Reduction in food intake in non-food-deprived Sprague-Dawley rat assessed as food intake level at 13.5 mg/kg, ip dosed 30 mins before beginning of dark cycle followed by exposure to standard chow pellets and measured 4 hrs post dose (reference value: 9g); assay type: functional
Rattus norvegicus [17] = experiment: Reduction in food intake in non-food-deprived Sprague-Dawley rat assessed as food intake level at 54 mg/kg, ip dosed 30 mins before beginning of dark cycle followed by exposure to standard chow pellets and measured 4 hrs post dose (reference value: 9g); assay type: functional
Rattus norvegicus [18] = experiment: Reduction in water intake in non-food-deprived Sprague-Dawley rat at 6.75 to 54 mg/kg, ip dosed 30 mins before beginning of dark cycle followed by exposure to standard chow pellets and measured 15.5 hrs post dose; assay type: functional, organism-based
Rattus norvegicus [19] = experiment: Reduction in body weight gain in non-food-deprived Sprague-Dawley rat at 6.75 to 54 mg/kg, ip dosed 30 mins before beginning of dark cycle followed by exposure to standard chow pellets and measured 15.5 hrs post dose; assay type: functional, organism-based
Rattus norvegicus [20] = experiment: Reduction in body weight gain in non-food-deprived Sprague-Dawley rat at 13.5 mg/kg, ip qd for 22 days measured between day-31 and day-60 post dose; assay type: functional, organism-based
Rattus norvegicus [21] = experiment: Reduction in body weight gain in non-food-deprived Sprague-Dawley rat at 13.5 mg/kg, ip qd for 22 days measured between day-4 and day-31 post dose; assay type: functional, organism-based
Rattus norvegicus [22] = experiment: Reduction in body weight gain in non-food-deprived Sprague-Dawley rat at 13.5 mg/kg, ip qd for 22 days measured on day-1 and day-3 post dose; assay type: functional, organism-based
Rattus norvegicus [23] = experiment: Reduction in food intake in 24 hrs food-deprived Sprague-Dawley rat at 25 to 100 nmol, icv measured after 2 hrs post dose; assay type: functional
Rattus norvegicus [24] = experiment: Reduction in food intake in 24 hrs food-deprived Sprague-Dawley rat assessed food intake level at 25 to 100 nmol, icv measured 3 hrs post dose (reference value: 2.5g); assay type: functional
Rattus norvegicus [25] = experiment: Reduction in water intake in 24 hrs food-deprived Sprague-Dawley rat assessed water intake level at 25 and 50 nmol, icv (reference value: 17 g); assay type: functional
Rattus norvegicus [26] = experiment: Reduction in water intake in 24 hrs food-deprived Sprague-Dawley rat at 100 nmol, icv; assay type: functional
Rattus norvegicus [27] = experiment: Reduction in body weight gain in 24 hrs food-deprived Sprague-Dawley rat assessed body weight gain intake level at 100 nmol, icv (reference value: 12g); assay type: functional
Rattus norvegicus [28] = species on record: Rattus norvegicus; experiment: Effect on motor function in Sprague-Dawley rat assessed as effect on locomotor activity for 1.5 hrs tested immediately after compound dose; assay type: organism-based; details: in vivo
Rattus norvegicus [29] = experiment: Induction of sedation in ip dosed Sprague-Dawley rat assessed as relaxed behavior after 16 hrs post dose; assay type: organism-based; details: in vivo
Rattus norvegicus [30] = experiment: Induction of sedation in ip dosed Sprague-Dawley rat assessed as absence of anxiety like behavior after 16 hrs post dose; assay type: organism-based; details: in vivo
Rattus norvegicus [31] = experiment: Induction of sedation in non-food-deprived Sprague-Dawley rat subjected to pre-pulse of 12 db followed by 120 db pulse assessed as animal jump height level at 6.75 mg/kg, po dosed 4.5 hrs before test; assay type: organism-based; details: in vivo
Rattus norvegicus [32] = experiment: Induction of sedation in non-food-deprived Sprague-Dawley rat subjected to pre-pulse of 12 db followed by 120 db pulse assessed as animal jump height level at 13.5 and 54 mg/kg, po dosed 4.5 hrs before test; assay type: organism-based; details: in vivo
Rattus norvegicus [33] = experiment: Reduction in food intake in 24 hrs food-deprived Sprague-Dawley rat assessed as food intake level at 27 mg/kg, po followed by standard chow pellets feeding and measured 2.5 hrs post dose (reference value: 6g); assay type: functional
Rattus norvegicus [34] = experiment: Reduction in food intake in 24 hrs food-deprived Sprague-Dawley rat assessed as food intake level at 54 mg/kg, po followed by standard chow pellets feeding and measured 2.5 hrs post dose (reference value: 6g); assay type: functional
Rattus norvegicus [35] = experiment: Reduction in food intake in 24 hrs food-deprived Sprague-Dawley rat assessed as food intake level at 27 mg/kg, po followed by standard chow pellets feeding and measured 8 hrs post dose (reference value: 14g); assay type: functional
Rattus norvegicus [36] = experiment: Reduction in food intake in 24 hrs food-deprived Sprague-Dawley rat assessed as food intake level at 54 mg/kg, po followed by standard chow pellets feeding and measured 8 hrs post dose (reference value: 14g); assay type: functional
Rattus norvegicus [37] = experiment: Reduction in food intake in 24 hrs food-deprived Sprague-Dawley rat dosed orally followed by standard chow pellets feeding; assay type: functional, organism-based
Rattus norvegicus [38] = experiment: Reduction in food intake in non-food-deprived Sprague-Dawley rat at 6.5 to 54 mg/kg, po followed by standard chow pellets feeding and measured 18 hrs post dose relative to control; assay type: functional
Rattus norvegicus [39] = experiment: Reduction in food intake in non-food-deprived Sprague-Dawley rat assessed as food intake level at 6.5 to 54 mg/kg, po followed by standard chow pellets feeding and measured 18 hrs post dose (reference value: 15g); assay type: functional

T1 sequence (P46095 whole entry, the tested form may be a part): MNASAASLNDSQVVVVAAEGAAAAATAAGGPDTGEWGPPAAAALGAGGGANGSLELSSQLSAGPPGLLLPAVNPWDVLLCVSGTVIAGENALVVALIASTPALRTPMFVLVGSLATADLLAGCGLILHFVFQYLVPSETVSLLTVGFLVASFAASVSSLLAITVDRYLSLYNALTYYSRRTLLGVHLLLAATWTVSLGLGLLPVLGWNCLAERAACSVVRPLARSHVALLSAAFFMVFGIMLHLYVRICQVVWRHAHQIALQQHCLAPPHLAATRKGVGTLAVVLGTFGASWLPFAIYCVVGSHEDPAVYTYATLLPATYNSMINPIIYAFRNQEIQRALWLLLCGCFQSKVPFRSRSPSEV

SMILES: Cc1noc(C)c1C(=O)/N=C1\SSC2=NCCN21
IC50 [1]: 460 nM | IC50 [2]: 350 nM

SMILES: CC(C)(C)c1ccc(C(=O)/N=C2\SSC3=NCCN32)cc1
IC50 [1]: 650 nM | IC50 [2]: 370 nM

SMILES: O=C(NC(=S)N1CCNC1=S)c1ccc2ccccc2c1
Activity (Rattus norvegicus [5]): 2.5 g | Activity (Rattus norvegicus [6]): 19.5 g | Activity (Rattus norvegicus [7]): 19 g

SMILES: O=C(/N=C1\SSC2=NCCN21)c1ccc(F)cc1F
IC50 [1]: 410 nM | IC50 [2]: 190 nM

SMILES: O=C(/N=C1\SSC2=NCCN21)c1ccno1
IC50 [1]: 330 nM | IC50 [2]: 100 nM

SMILES: O=C(/N=C1\SSC2=NCCN21)c1cccs1
IC50 [1]: 420 nM | IC50 [2]: 100 nM | Activity (Rattus norvegicus [9]): 3 g | Activity (Rattus norvegicus [10]): 4 g | fold change (FC) (Rattus norvegicus [11]): 4 | fold change (FC) (Rattus norvegicus [12]): 5 | Activity (Rattus norvegicus [13]): 11 g | Activity (Rattus norvegicus [14]): Active | Activity (Rattus norvegicus [15]): Active | Activity (Rattus norvegicus [16]): 4 g | Activity (Rattus norvegicus [17]): 2 g | Activity (Rattus norvegicus [18]): Active | Activity (Rattus norvegicus [19]): Active | Activity (Rattus norvegicus [20]): Active | Activity (Rattus norvegicus [21]): Active | Activity (Rattus norvegicus [22]): Active | fold change (FC) (Rattus norvegicus [23]): 6 | Activity (Rattus norvegicus [24]): <=1 g | Activity (Rattus norvegicus [25]): 17 g | inhibition (INH) (Rattus norvegicus [26]): >=50% | Activity (Rattus norvegicus [27]): 5 g | Activity (Rattus norvegicus [28]): Non-toxic | Activity (Rattus norvegicus [29]): Toxic | Activity (Rattus norvegicus [30]): Toxic | Activity (Rattus norvegicus [31]): Non-toxic | Activity (Rattus norvegicus [32]): Toxic | Activity (Rattus norvegicus [33]): 6 g | Activity (Rattus norvegicus [34]): 4 g | Activity (Rattus norvegicus [35]): 8 g | Activity (Rattus norvegicus [36]): 6 g | Activity (Rattus norvegicus [37]): Dose-dependent effect | fold change (FC) (Rattus norvegicus [38]): 3 | Activity (Rattus norvegicus [39]): <=5 g | Activity (Rattus norvegicus [3]): 8.1 g | Activity (Rattus norvegicus [6]): 6 g

SMILES: O=C(/N=C1\SSC2=NCCN21)c1ccc(C(F)(F)F)cc1
IC50 [1]: 570 nM | IC50 [2]: 170 nM

Second part, led by results:

IC50 [1]: 830 nM | IC50 [2]: 210 nM
SMILES: COc1ccc(C(=O)/N=C2\SSC3=NCCN32)cc1

IC50 [1]: 130 nM | IC50 [2]: 190 nM
SMILES: O=C(/N=C1\SSC2=NCCN21)c1cc2ccccc2s1
Activity (Rattus norvegicus [3]): 9.6 g | Activity (Rattus norvegicus [4]): 20 g | Activity (Rattus norvegicus [5]): 1 g | Activity (Rattus norvegicus [6]): 14 g | Activity (Rattus norvegicus [7]): 19 g

IC50 [1]: 640 nM | IC50 [2]: 270 nM
SMILES: O=C(/N=C1\SSC2=NCCN21)c1ccc(Cl)cc1
Activity (Rattus norvegicus [3]): 9.88 g | Activity (Rattus norvegicus [4]): 18.5 g | Activity (Rattus norvegicus [8]): 11.4 g

IC50 [1]: 220 nM | IC50 [2]: 240 nM
SMILES: O=C(/N=C1\SSC2=NCCN21)c1cccc(F)c1
Activity (Rattus norvegicus [3]): 9.1 g | Activity (Rattus norvegicus [4]): 9.5 g | Activity (Rattus norvegicus [8]): 9.5 g | Activity (Rattus norvegicus [5]): 1 g | Activity (Rattus norvegicus [6]): 9 g | Activity (Rattus norvegicus [7]): 10 g

IC50 [1]: 790 nM | IC50 [2]: 140 nM
SMILES: Cc1cccc(C(=O)/N=C2\SSC3=NCCN32)c1

IC50 [1]: 170 nM | IC50 [2]: 170 nM
SMILES: O=C(/N=C1\SSC2=NCCN21)c1ccc2ccccc2c1
Activity (Rattus norvegicus [3]): 9 g | Activity (Rattus norvegicus [8]): 11 g | Activity (Rattus norvegicus [5]): 1 g | Activity (Rattus norvegicus [6]): 11 g | Activity (Rattus norvegicus [7]): 4 g
